Assay results taken from patent publication US11053259B2, “Crystal of cephalosporin intermediate 7α-methoxy cephalothin and method for preparing same” (QILU ANTIBIOTICS PHARMACEUTICAL CO. LTD., priority 2017, dated 2021).
Counter-ions that a name gives are not always drawn.

Key:
[1] = 6-month accelerated comparative study on stability; type: physicochemical; details: for Appearance / Content / Moisture: 25° C. and RH of 60%
[2] = hygroscopicity and storage stability of the cyclohexylamine salt (statement on existing technology); type: physicochemical

Structure (SMILES)	Appearance ([1]; Month 0)	Content ([1]; Month 0) [%]	Moisture ([1]; Month 0) [%]	Appearance ([1]; Month 1)	Content ([1]; Month 1) [%]	Moisture ([1]; Month 1) [%]	Appearance ([1]; Month 2)	Content ([1]; Month 2) [%]	Moisture ([1]; Month 2) [%]	Appearance ([1]; Month 3)	Content ([1]; Month 3) [%]	Moisture ([1]; Month 3) [%]	Appearance ([1]; Month 6)	Content ([1]; Month 6) [%]	Moisture ([1]; Month 6) [%]	hygroscopicity [2]	stability of appearance, hygroscopicity and content (overall result in words) ([1]; 6-month accelerated testing)	storage stability [2]
CO[C@@]1(NC(=O)Cc2cccs2)C(=O)N2C(C(=O)O)=C(COC(C)=O)CS[C@@H]21 [Cyclohexylamine Salt of 7α-Methoxy Cephalothin]	Off-white	78.4	0.13	Light	77.5	0.87	Yellow	76.3	1.56	Yellow	75.1	1.84	Earthy	72.4	2.55	strong hygroscopicity	–	–
CO[C@@]1(NC(=O)Cc2cccs2)C(=O)N2C(C(=O)O)=C(COC(C)=O)CS[C@@H]21 [listing 1 of 2 here]	–	–	–	–	–	–	–	–	–	–	–	–	–	–	–	–	better purity and quality stability	–
CO[C@@]1(NC(=O)Cc2cccs2)C(=O)N2C(C(=O)O)=C(COC(C)=O)CS[C@@H]21 [listing 2 of 2 here]	–	–	–	–	–	–	–	–	–	–	–	–	–	–	–	–	–	poor storage stability
CO[C@@]1(NC(=O)Cc2cccs2)C(=O)N2C(C(=O)O)=C(COC(C)=O)CS[C@@H]21 [Crystal of 7α-Methoxy Cephalothin, (6R, 7S)-3-acetyloxymethyl-7-methoxy-8-oxo-7-[2-(2-thienyl)acetamido]-5-thia-1-nitrobicyclo [4.2.0] oct-2-ene-2-carboxylic acid]	Off-white	98.2	0.26	Off-white	98.2	0.27	Off-white	98.1	0.27	Off-white	98.1	0.29	Off-white	97.9	0.28	–	–	–
